# Laboratory results from patent US6592845B2, “Estrogens for treating ALS” (Parker Hughes Institute, priority 1999, dated 2003).
# System: Heterozygous transgenic mice carrying the human SOD-1 (G93A)
# Assay: Murine model of familial ALS (FALS): monitoring for limb paralysis and death, life-table analysis
# Type: in vivo
# Details: 16 mg/kg twice a day, everyday except weekends
# Experimental: (§1) Heterozygous transgenic mice carrying the human SOD-1 (G93A) were obtained from Jackson Laboratory (Bar Harbor, Me., USA). These mice were monitored everyday for limbic paralysis and death. Onset of FALS was defined as the first day upon which limbic paralysis was observed. Life-table analysis was performed using Statview, Abacus Concepts, Inc. (Berkeley, Calif.).
# There are currently several transgenic animal models of ALS (Borchelt et al., 1998, Transgenic mouse models of Alzheimer's disease and amyotrophic lateral sclerosis, Brain Pathology, 8: 735-757). The G93A HuSOD1 is a well established animal model of familial ALS which has been described previously in detail (Dal Canto M C, Gurney Me., 1994, The development of central nervous system pathology in a murine transgenic model of human amyotrophic lateral sclerosis. Am J. Pathol 145: 1-9; Gurney et al., 1994, Motor neuron degeneration in mice that express a human Cu,Zn superoxide dismutase mutation, Science 264:1772-1775). Levels of SOD1 activity are elevated to about five times above that of endogenous SOD 1 in these mice. In this model, the mice develop hind limb weakness, a coarse coat, poor grooming, and reduced stride length at about 3 months of age. By five months of age, a majority of the mice are moribund.
# as §1, with “USA). The mice were treated either with vehicle or genistein at 16 mg/kg twice a day, everyday, except on weekends. The” for “USA). These”, “for limb” for “for limbic”, “Calif.). […]” for “Calif.).”
# The ability of 4-(4′-hydroxylphenyl)-amino-6,7-dimethoxyquinazoline (P131) and 2,4,4′-trihydroxy deoxybenzoin (DDE-17) to protect against neural degeneration in familial ALS was evaluated using the methods described above for Example 2. […]
# [1] = male FALS mice, compared with vehicle-treated males
structure (smiles),measurement,setting,value
"O=c1c(-c2ccc(O)cc2)coc2cc(O)cc(O)c12 [Genistein, genistein]",disease onset (first day upon which limbic paralysis was observed),"female FALS mice, compared with untreated (vehicle) females",did not exhibit a delay
same,disease onset (first day upon which limbic paralysis was observed),[1],delayed
same,mortality,[1],delayed
